Counter-ions that a name gives are not always drawn.

What is called LD50 is the dose expected to kill half of the subjects tested. Usually ED50 stands for the dose at which the effect has come halfway, by size or by number of responders.

Series [1] concerns mice. As to the kind of experiment: Interaction of Benzopyranopyridines with Fluothane (halothane) (modified Carson and Domino method). The note with it: 1 to 5 mg./kg. 15 minutes prior to halothane vapors. The format is in vivo, female Swiss-Webster mice. From the text:
(§1) A modification of the method of Carson and Domino (Anesthesiology, 23:187-192, 1962) was used.
(§2) Groups of 10 female Swiss-Webster (A. R. Schmidt, Madison, Wisconsin) mice weighing between 16-24 grams were pre-treated with various doses or at various times with drug either oral or by intravenous injection of the tail veins. The mice were placed into 2 liter beakers (5 animals per beaker). The tops of the beakers were covered with Parafilm to which a gauze sponge had been attached. 0.1 cc of Penthrane or halothrane was injected through the Parafilm into the sponge at 5 minute intervals. […] These parameters were measured by the use of a stop watch. Statistical analysis (one-way analysis of variance) was done on the computer.

For series [2], the system named is mice. The series is described as follows: Activity of benzopyrans as adjuvants to halothane anesthesia (Carson-Domino method). Format: in vivo. Further details: key: +: statistically significant increase; -: statistically significant decrease; NE: no effect; (): large but non-statistically significant change.
From the text: as §1, §2
A number of benzopyran derivatives were screened in mice as adjuvants to the anesthetic actions of halothane. The Carson-Domino method (Anesthesiology 23:187, 1962) was used to measure anesthetic induction times and duration of anesthesia as evidenced by loss of righting reflex, as well as changes in the lethality of halothane.
Screening doses of 5 mg./kg. intravenously or 20 mg./kg. orally were used.

Series [3] has as its system mice. As to the kind of experiment: Interaction of Benzopyranopyridines with Pentothal (loss of righting reflex, sleep). The format is in vivo, female Swiss-Webster mice. The method, then:
(§3) Groups of 10 female Swiss-Webster (A. R. Schmidt, Madison, Wisconsin) mice weighing between 16-25 grams were used for all studies. Intravenous injections were made into the tail veins. The drugs were prepared daily in Sterile Water (Abbott List No. 1590). […] LD50 's ED50 's, and their associated conficence limits were calculated by the method of Litchfield and Wilcoxon (1949).
Interaction of Benzopyranopyridines with Pentothal
1. Animals pretreated with SP-106, 1 mg./kg. intravenously 0-30 minutes prior to Pentothal, 10 mg./kg. […] Longer pretreatment times (60 to 120 minutes) had no effect.

The test system of series [4] is mice. As to the kind of experiment: Interaction of Benzopyranopyridines with Penthrane (modified Carson and Domino method). Format: in vivo, female Swiss-Webster mice. The note with it: 1 to 5 mg./kg. 15 minutes prior to Penthrane vapors.
From the text: as §1, §2

Series [5] can be described thus: Solubility in water of the product. The note with it: powder.
Series [6] can be described thus: Determination of the Anesthetic ED50 and the LD50 of Pentothal. The note with it: mouse, in vivo; intravenous, mice, observed one week; read-out: LD50 (95% C.L.). Format: in vivo, female Swiss-Webster mice. Here is the method: (§4) An intravenous potency/lethality ratio for Pentothal was established in mice as follows
(§5) Determination of the Anesthetic ED50 and the LD50 of Pentothal
as §3

For series [7], the system named is mice. Described as above. The format is in vivo, female Swiss-Webster mice. The method, then: as §4, §5, §3
[8] abbreviates: 5 mg/kg i.v., pretreatment time 15 minutes.
[9] abbreviates: 20 mg/kg p.o., pretreatment time 1 hr.
Where [10] appears, read: 20 mg/kg p.o., pretreatment time 2 hr.
Where [11] appears, read: 20 mg/kg p.o., pretreatment time 3 hr.
Setting [12] is: 20 mg/kg p.o., pretreatment time 4 hr.

As for `C#CCN1CCC2=C(C1)c1c(OC(=O)CCCN3CCCCC3)cc(C(C)C(C)CCCCC)cc1OC2(C)C.Cl` (centres unmarked) [SP-106, 5,5-Dimethyl-8-(3-methyl-2-octyl)-10-[4-(piperidino)butyryloxy]-2-(2-propynyl)-1,2,3,4-tetrahydro-5H-[1]benzopyrano[3,4-d]pyridine hydrochloride], in the series with mice [1], the Onset result is “reduction of onset”, the duration of anesthesia entry was “increased the duration of anesthesia” and the time to death entry was “increased”. In the series on mice [2] (setting [8]), the Duration result is “+”, the Lethality entry is “-” and the Onset entry was “-”. In the series on mice [3] (1 mg./kg. intravenously 0-30 minutes prior to Pentothal 10 mg./kg.), this compound showed a peak effect of 5 min. Besides, in the series on mice [3] (1 mg./kg. intravenously 0-30 minutes prior to Pentothal 10 mg./kg. (non-anesthetic dose)), the “anesthesia (loss of righting reflex)” value is recorded as “produced anesthesia”. Besides, the sleep duration entry with mice [3] (1 and 5 mg./kg. intravenously 15 minutes prior to anesthetic dose (30 mg./kg.) of Pentothal) was “significantly lengthened the sleep”. The “effect at longer pretreatment times” value in the series with mice [3] (60 to 120 minutes pretreatment, 1 mg./kg. intravenously, Pentothal 10 mg./kg.) is “had no effect”. Besides, in the series on mice [4], the duration of anesthesia result is on record as “significantly lengthened the duration of anesthesia”, the onset to sleep entry was “signficantly shortened onset to sleep” and the time to death entry is given as “had no effect or lengthened time to death”.

On to `CC1CCC2=C(C1)c1c(OC(=O)CCCN3CCCCC3)cc(C(C)CCCc3ccc(F)cc3)cc1OC2(C)C` (centres unmarked) [Example 71], for which, in series [5], the solubility in water entry is given as “soluble in water”.

`CCCCCC(C)C(C)c1cc(OC(=O)CCCN2CCCCC2)c2c(c1)OC(C)(C)C1=C2CCC1` (centres unmarked) [SP-102]: in the series on mice [2] (setting [8]), the Duration result is reported as “+”, the Lethality result is on record as “NE” and the Onset result is “+”.

As for `C#CCN1CCC2=C(C1)c1c(OC(=O)C(C)CCN3CCCCC3)cc(C(C)C(C)CCCCC)cc1OC2(C)C` (centres unmarked) [SP-178, 5,5-Dimethyl-10-[2-methyl-4-(piperidino)butyryloxy]-8-(3-methyl-2-octyl)-2-(2-propynyl)-1,2,3,4-tetrahydro-5H-[1]benzopyrano[3,4-d] pyridine dihydrochloride], in the series on mice [2] (setting [8]), the Duration result was “+”, the Lethality result is “NE” and the Onset result was “-”.

Turning to `CCCCCC(C)C(C)c1cc(OC(=O)CCCN2CCCCC2)c2c(c1)OC(C)(C)C1=C2CCCS1` (centres unmarked) [SP-117], in the series with mice [2] (setting [8]), the Lethality result is given as “NE” and the Onset entry is on record as “+”.

For `C#CCN1CCC2=C(C1)c1c(OC(=O)CCCN3CCCCC3)cc(C(C)CCCc3ccc(F)cc3)cc1OC2(C)C` (centres unmarked) [SPA-109], in the series on mice [2] (setting [8]), the Duration result is reported as “+”, the Lethality entry was “NE” and the Onset result is on record as “-”.

With `CCCCCc1cc(OC(=O)CCCN2CCOCC2)c2c(c1)OC(C)(C)C1CCC(C)=CC21` (centres unmarked) [SP-111], in the series with mice [2] (setting [8]), the Duration result is on record as “+”, the Lethality result is given as “NE” and the Onset result was “-”.

Take `C#CCN1CCC2=C(C1)c1c(OC(=O)C(C)CCN3CCCCC3C)cc(C(C)C(C)CCCCC)cc1OC2(C)C` (centres unmarked) [SP-204]: in the series on mice [2] (setting [8]), the Duration entry is “+”, the Lethality entry was “-” and the Onset result is on record as “-”.

For `C#CCN1CCC2=C(C1)c1c(O)cc(C(C)C(C)CCCCC)cc1OC2(C)C` (centres unmarked) [SP-1], the Duration result in the series on mice [2] (setting [9]), in the series on mice [2] (setting [10]), in the series with mice [2] (setting [11]) and in the series with mice [2] (setting [12]) was “+” each time. Further, the Lethality entry was “-” in the series on mice [2] (setting [9]), “NE” with mice [2] (setting [10]), “NE” with mice [2] (setting [11]) and “NE” in the series with mice [2] (setting [12]). For the same compound, the Onset entry in the series with mice [2] (setting [9]) is “+”; in the series with mice [2] (setting [10]), “-”; with mice [2] (setting [11]), “-”; with mice [2] (setting [12]), “-”.

With `C#CCN1CCC2=C(C1)c1c(OC(=O)CCCN3CCCCC3C)cc(C(C)C(C)CCCCC)cc1OC2(C)C` (centres unmarked) [SP-159, 5,5-Dimethyl-10-[4-(2-methylpiperidino)butyryloxy]-8-(3-methyl-2-octyl)-2-(2-propynyl)-1,2,3,4-tetrahydro-5H-[1]benzopyrano [3,4-d] pyridine hydrochloride], in the series on mice [2] (setting [8]), the Duration entry was “+”, the Lethality result is recorded as “NE” and the Onset result is recorded as “-”.

With `C#CCN1CCC2=C(C1)c1c(OC(=O)CCCN3CCOCC3)cc(C(C)C(C)CCCCC)cc1OC2(C)C.Cl` (centres unmarked) [SP-112, 5,5-Dimethyl-10-[4-(morpholino)butyryloxy]-8-(3-methyl-2-octyl)-2-(2-propynyl)-1,2,3,4-tetrahydro-5H-[1]-benzopyrano [3,4-d] pyridine hydrochloride], in the series on mice [2] (setting [8]), the Duration result was “+”, the Lethality result was “NE” and the Onset entry is given as “-”.

As to `CCCC(C)C1(CC)C(=O)NC(=S)NC1=O` (centres unmarked) [Pentothal, sodium thiopental], the LD50 at 168 h in series [6] came to 76 mg/kg. In addition, the ED50 with mice [7] (Mus musculus, intravenous, mice, loss of righting reflex, read-out: Anesthetic ED50 (95% C.L.)) was 20 mg/kg. The compound further registered a pH with mice [7] (Remarks: irritating (pH 11)) of 11. Also, in the series with mice [7] (intravenous, mice), the “Remarks: duration” value was “short duration”, the “Remarks: irritation” value is on record as “irritating”, the “Remarks: onset” value is on record as “Immediate onset” and the “Therapeutic Index” value is given as ~ 4.

The values above are taken from patent US4025630A, “Anesthesia methods using benzopyrans and esters thereof as pre-anesthesia medication” (Abbott Laboratories, priority 1974, dated 1977).
